The values that follow come from paper PMC8589628, “Characterization and Antimicrobial Studies of Iturin-Like and Bogorol-Like Lipopeptides From Brevibacillus spp. Strains GI9 and SKDU10” (Frontiers in Microbiology, 2021).

Read-outs that look alike come from different tables or passages of the source. Peptide text beside a SMILES is read from it. * marks the point of attachment. X1 = CC(C)CCCCCCCCCCCCC(=O)*

The subject of data set [1] is S. aureus MTCC 1430. Put plainly: TEM of treated cells. It counts as cell-based, Staphylococcus aureus. Conditions: S. aureus MTCC 1430, 1X MIC, 30 min, 37°C. The procedure:
Effect of antimicrobial compounds on cell membrane of test organisms was determined by transmission electron microscopy (TEM). Test strains, S. aureus MTCC 1430, V. cholerae MTCC 3904, and C. albicans MTCC 183 were cultured to mid-log phase, washed, and re-suspended in 1X PBS (OD 600 nm 0.2). The cell suspensions were incubated (37°C) with 1X MIC of purified antimicrobial compounds for 30 min. Cells after treatment were centrifuged, washed twice with PBS. For TEM, cells of S. aureus MTCC 1430 and V. cholerae MTCC 3904 were subjected to negative stain with 0.1% (w/v) sodium phosphotungstate (PTA, Sigma, United States) in water for 1 min, on a carbon-coated copper grid with 300 mesh (Polyscience, United States) and observed under transmission electron microscope (JEOL JEM 2100, United States) ([Raje et al., 2006]). For SEM, C. albicans MTCC 183 cells were immobilized on poly L-lysine glazed glass slides and incubated at 4°C for 2 h. Cells were fixed using Karnovsky’s fixative and serially dehydrated with gradient of ethanol, freeze dried, and platinum coated. ZEISS EV040 (United States) scanning electron microscope was employed to photograph the cells ([Raje et al., 2006]). Spores of A. brassicicola MTCC 2102 were treated with 2X MIC of lipopeptides for 2 h and observed under phase-contrast microscope (Nickon H600L, Japan). […]

Data set [2] concerns S. aureus MTCC 1430. Put plainly: Time kill assay. It counts as cell-based, Staphylococcus aureus. The following applies: in PBS, CFU count. The protocol: Killing kinetics of purified compounds was performed using cells of S. aureus MTCC 1430, V. cholerae MTCC 3904, and C. albicans MTCC 183. Test strains were grown to obtain OD between 0.2 and 0.3 (OD 600 nm), centrifuged, and washed thrice with sterile PBS. Pellets were suspended in PBS and treated with different concentrations of active compounds. Cells after treatment were washed, resuspended, and serially diluted cell suspensions were plated on NA plates. After overnight incubation at 37°C, CFU were recorded ([Singh et al., 2021]).

The next data set concerns V. cholerae MTCC 3904. It counts as cell-based, Vibrio cholera. The protocol: (§1) The antimicrobial activity of HPLC purified compounds was determined against various test strains including S. aureus MTCC 1430, Vibrio cholera MTCC 3904, Bacillus subtilis MTCC 121, Listeria monocytogenes MTCC 839, C. albicans MTCC 183, C. albicans MTCC 1637, C. albicans MTCC 227, C. tropicalis MTCC 184, C. glabrata MTCC 3019, and C. inconspicua MTCC 1074. Antimicrobial activity was also tested against clinical Candida strains and phytopathogenic fungi viz. Fusarium moniliforme MTCC 158, Alternaria brassicicola MTCC 2102 and Colletotrichum acutatum MTCC 1037. Bacterial and Candida test strains were grown in NB and yeast malt broth (YMB), respectively. Fungal test strains were grown in potato dextrose broth (PDB). Minimum inhibitory concentrations (MICs) of purified compounds were evaluated against test organisms by using a microtiter plate dilution assay. Mid-log-phase test strains (5 × 10^5 CFU/ml) were incubated in a 96-well plate with different concentrations of the lipopeptides for 24–48 h at 37°C (final volume of 200 μl). OD was measured at 600 nm after 24 and 48 h for bacteria and yeast, respectively, using an ELISA microplate reader (Thermo Scientific, United States). MIC against phytopathogenic fungi was determined using the 96-well microtiter plate method ([Sharma et al., 2020]).

The test system of data set [3] is A. brassicicola MTCC 2102. Put plainly: Protection of tomato slices and grapes from fungal spores. More on the design: species or system Alternaria brassicicola. Conditions: 500 μl of 2 mg/ml lipopeptide, then 50 μl spore suspension (10^7 conidia per ml); 25°C, 4 days; three replicates. The protocol:
The surface of the tomatoes and grapes was sterilized with 5% NaOCl for 5 min and rinsed three times with plenty of sterile water. After sterilization, tomatoes were cut into slices and wounds of 3 mm were inflicted with a sterile scalpel on the surface of the grapes. Tomato slices and grapes were divided into four groups. Contents of group 1 were treated with water only (negative control). Contents of group 2 were treated with 50 μl of a spore suspension (spores 10^7 conidia per ml) of A. brassicicola MTCC 2102 (positive control without treatment). Contents of group 3 were first treated with 500 μl of 2 mg/ml solution of purified lipopeptides separately and after adsorption of lipopeptides, fungal spores were added. Contents of the fourth group were treated with purified lipopeptides only without addition of fungal spores. Tomato slices and grapes from all four groups were incubated at 25°C under controlled humidity conditions for 4 days and observed. Each treatment was performed with three biological and technical replicates.

The next data set deals with B. subtilis MTCC 121. Type of data set: cell-based, Bacillus subtilis. The protocol:
as §1

For the next data set, the system named is Chymotrypsin. Put plainly: Effect of hydrolytic enzymes on activity (well-diffusion assay). Type of data set: in vitro ADME. The following applies: 6h/ 37 °C. The protocol:
(§2) Sensitivities of purified antimicrobial compounds to temperature, pH, and hydrolytic enzymes were confirmed by performing well-diffusion assay. pH stability was determined by adjusting the pH of aliquots of purified antimicrobial compounds from 2.0 to 12.0 (using 10 mM HCl or NaOH) and incubating at room temperature for 4 h. The residual activity was measured after neutralizing the sample to pH 7.0. To determine temperature susceptibility, antimicrobial compounds were incubated at different temperatures ranging from 37 to 100°C for 1 h and 121°C for 15 min, and then residual antimicrobial activity was determined after cooling the samples to room temperature. Similarly, proteolytic enzymes such as trypsin and proteinase K were used at three different concentrations (0.1, 1.0, and 5.0 mg/ml) to ensure their effect on the activity of antimicrobial compounds. The enzyme solutions were prepared in 50 mM phosphate buffer (pH 7.0). All reactions were performed at 37°C for 6 h followed by deactivation of the enzyme by heating the solution in boiling water for 5 min before performing the activity assay.
For orientation: In agar diffusion tests the substance spreads into inoculated agar from a disc or well.

Another data set addresses Proteinase K (Parengyodontium album, UniProt P06873). Described as above. It counts as in vitro ADME. Conditions: for Tolerance to proteinase K treatment: 37°C, 6 h; for Residual activity: Proteinase K, 6h/ 37 °C, 50 mM phosphate buffer (pH 7.0), enzyme 0.1, 1.0 and 5.0 mg/ml used, well-diffusion assay. The procedure: as §2
The test system of a further data set is Trypsin. The description is as above. Type of data set: in vitro ADME. The following applies: for Tolerance to trypsin treatment: 37°C, 6 h; for Residual activity: Trypsin, 6h/ 37 °C, 50 mM phosphate buffer (pH 7.0), enzyme 0.1, 1.0 and 5.0 mg/ml used, well-diffusion assay. The procedure:
as §2

Proteinase K, sequence (P06873 106-384): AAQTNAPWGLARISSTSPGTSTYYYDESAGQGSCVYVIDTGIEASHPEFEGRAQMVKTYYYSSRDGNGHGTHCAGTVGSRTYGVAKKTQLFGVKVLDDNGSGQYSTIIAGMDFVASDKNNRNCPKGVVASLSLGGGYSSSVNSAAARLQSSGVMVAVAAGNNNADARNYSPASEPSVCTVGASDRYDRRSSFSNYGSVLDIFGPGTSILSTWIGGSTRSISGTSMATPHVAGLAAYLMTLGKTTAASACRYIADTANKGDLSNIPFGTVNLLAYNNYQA

For `CC(C)CCCCCCCCCCCCC(=O)N[C@H](C(=O)NCC(=O)N[C@@H](C)C(=O)N[C@@H](CO)C(=O)N[C@@H](Cc1c[nH]cn1)C(=O)N[C@@H](CCC(N)=O)C(=O)N[C@@H](CCC(N)=O)C(=O)O)[C@@H](C)O` [ILL] (X1-TGASHQQ-OH; N-terminus assumed), in the data set on S. aureus MTCC 1430 [1], the “Effect on cells (TEM)” value is “lysis with accumulation of debris on cell surface, altered morphology, and shrinkage”. Also, the “Time to complete reduction in population” value in the data set on S. aureus MTCC 1430 [2] (S. aureus MTCC 1430, 1X MIC) is on record as no more than 60 min; with S. aureus MTCC 1430 [2] (S. aureus MTCC 1430, 2X MIC), no more than 30 min. The MIC value was 105 to 115 µg/mL against V. cholerae MTCC 3904 (MTCC 3904, 24 h) and 260 to 270 µg/mL in the data set with B. subtilis MTCC 121 (MTCC 121, 24 h). For the same compound, the “Fungal growth on the surface of treated tomato and grape slices inoculated with spores” value in data set [3] was “no fungal growth”. In addition, the values for the Residual activity with Chymotrypsin, at Proteinase K and with Trypsin were 91.1%, 82.3% and 94.1%, respectively. In addition, on Proteinase K, the “Tolerance to proteinase K treatment” value is recorded as “resistant”. Further, the “Tolerance to trypsin treatment” value in the data set on Trypsin was “resistant”.

On to “Dhb-Tyr-Orn-Ile-Val-Val-Lys-Val-Leu-Asp-Val-Glu [BLL, bogorol like lipopeptide purified from Brevibacillus sp. strain SKDU10; 12 amino acids and C17 hydroxy fatty acid side chain]”, for which the “Effect on cells (TEM)” value with S. aureus MTCC 1430 [1] is “irregularities in structure with rupturing of cell wall and lysis”. Further, the “Time to complete reduction in population” value was no more than 30 min with S. aureus MTCC 1430 [2] (S. aureus MTCC 1430, 1X MIC) and no more than 30 min in the data set on S. aureus MTCC 1430 [2] (S. aureus MTCC 1430, 2X MIC). The MIC value in the data set on V. cholerae MTCC 3904 (V. cholerae MTCC 3904, NB, 5 × 10^5 CFU/ml, 37°C, OD 600 nm after 24 h, 10–550 μg/ml in 5 μg/ml increments) lay within 140 to 150 µg/mL; with B. subtilis MTCC 121 (B. subtilis MTCC 121, NB, 5 × 10^5 CFU/ml, 37°C, OD 600 nm after 24 h, 10–550 μg/ml in 5 μg/ml increments), 225 to 235 µg/mL. Also, the “Fungal growth on the surface of treated tomato and grape slices inoculated with spores” value in data set [3] is recorded as “no fungal growth”. Also, the Residual activity with Chymotrypsin worked out at 94.4%; at Proteinase K it was 77.7%; with Trypsin, 91.6%. For the same compound, on Proteinase K, the “Tolerance to proteinase K treatment” value was “resistant”. Further, the “Tolerance to trypsin treatment” value with Trypsin is reported as “resistant”.
